How the values were obtained:
[1] = biological target: T1, Retinoic acid receptor beta (Homo sapiens, UniProt P10826); assay: Transactivation potency for Retinoic acid receptor beta
T1 sequence (P10826 whole entry): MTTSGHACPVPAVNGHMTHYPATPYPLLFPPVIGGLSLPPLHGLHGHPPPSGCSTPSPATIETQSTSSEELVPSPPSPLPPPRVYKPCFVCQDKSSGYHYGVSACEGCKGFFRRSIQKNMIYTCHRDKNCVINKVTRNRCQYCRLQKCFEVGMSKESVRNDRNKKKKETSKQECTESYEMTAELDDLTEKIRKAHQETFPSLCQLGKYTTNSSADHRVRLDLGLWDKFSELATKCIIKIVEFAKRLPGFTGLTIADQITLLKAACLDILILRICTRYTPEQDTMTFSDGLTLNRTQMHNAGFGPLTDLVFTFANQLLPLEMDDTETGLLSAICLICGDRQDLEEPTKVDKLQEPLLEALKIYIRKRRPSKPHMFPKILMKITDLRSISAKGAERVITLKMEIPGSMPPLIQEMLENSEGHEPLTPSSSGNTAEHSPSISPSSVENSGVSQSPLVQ

[2] = biological target: T2, Retinoic acid receptor gamma (Homo sapiens, UniProt P13631); assay: Transactivation potency for Retinoic acid receptor gamma
T2 sequence (P13631 whole entry): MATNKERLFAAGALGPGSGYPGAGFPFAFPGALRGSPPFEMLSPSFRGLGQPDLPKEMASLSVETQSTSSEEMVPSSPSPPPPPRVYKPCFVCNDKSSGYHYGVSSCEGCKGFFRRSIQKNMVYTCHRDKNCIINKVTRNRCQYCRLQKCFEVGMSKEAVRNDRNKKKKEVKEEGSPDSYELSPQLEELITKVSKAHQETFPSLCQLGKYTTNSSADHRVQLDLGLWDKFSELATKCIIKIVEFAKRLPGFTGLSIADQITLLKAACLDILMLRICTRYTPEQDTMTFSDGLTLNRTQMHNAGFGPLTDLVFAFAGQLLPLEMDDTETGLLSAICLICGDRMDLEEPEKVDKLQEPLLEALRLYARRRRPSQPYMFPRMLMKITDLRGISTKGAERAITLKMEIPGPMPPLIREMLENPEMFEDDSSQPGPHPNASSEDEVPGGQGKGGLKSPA

[3] = biological target: T2, Retinoic acid receptor gamma; assay: Binding affinity for Retinoic acid receptor gamma
[4] = biological target: T3, Retinoic acid receptor alpha (Homo sapiens, UniProt P10276); assay: Binding affinity for Retinoic acid receptor alpha
T3 sequence (P10276 whole entry): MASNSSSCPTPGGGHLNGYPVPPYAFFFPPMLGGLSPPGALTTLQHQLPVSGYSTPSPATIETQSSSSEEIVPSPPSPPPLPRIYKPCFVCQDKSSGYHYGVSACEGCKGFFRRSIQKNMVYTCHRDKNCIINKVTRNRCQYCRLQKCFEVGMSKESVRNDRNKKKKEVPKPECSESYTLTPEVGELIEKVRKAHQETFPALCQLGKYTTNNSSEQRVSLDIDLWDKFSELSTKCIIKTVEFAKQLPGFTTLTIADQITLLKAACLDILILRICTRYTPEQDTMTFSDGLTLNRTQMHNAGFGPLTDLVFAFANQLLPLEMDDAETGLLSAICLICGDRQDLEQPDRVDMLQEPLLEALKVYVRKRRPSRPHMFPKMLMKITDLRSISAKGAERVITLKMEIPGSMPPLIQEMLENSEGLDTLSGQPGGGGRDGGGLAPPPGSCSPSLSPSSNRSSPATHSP

[5] = biological target: T1, Retinoic acid receptor beta; assay: Binding affinity for Retinoic acid receptor beta
[6] = biological target: T3, Retinoic acid receptor alpha; assay: Transactivation potency for Retinoic acid receptor alpha
[7] = biological target: T4, Ornithine decarboxylase (Mus musculus) (UniProt P00860); assay: Inhibition of ornithine decarboxylase activity in hairless mouse skin in vivo; assay type: organism-based
T4 sequence (whole entry): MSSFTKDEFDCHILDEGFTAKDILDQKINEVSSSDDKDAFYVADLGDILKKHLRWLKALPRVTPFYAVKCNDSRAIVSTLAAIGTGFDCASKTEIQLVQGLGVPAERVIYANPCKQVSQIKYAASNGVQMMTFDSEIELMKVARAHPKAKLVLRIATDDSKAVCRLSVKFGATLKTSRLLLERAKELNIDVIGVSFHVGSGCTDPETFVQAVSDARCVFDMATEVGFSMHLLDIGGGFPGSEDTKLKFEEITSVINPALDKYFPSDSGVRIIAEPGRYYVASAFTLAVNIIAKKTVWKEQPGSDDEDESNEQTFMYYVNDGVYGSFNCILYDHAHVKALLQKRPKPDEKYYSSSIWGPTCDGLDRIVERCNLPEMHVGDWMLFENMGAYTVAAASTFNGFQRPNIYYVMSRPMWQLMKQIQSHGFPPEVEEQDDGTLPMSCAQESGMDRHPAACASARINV

[8] = biological target: T3, Retinoic acid receptor alpha; assay: Binding affinity for Retinoic acid receptor alpha; Not active
[9] = biological target: T3, Retinoic acid receptor alpha; assay: Transactivation potency for Retinoic acid receptor alpha; Not active
[10] = biological target: T1, Retinoic acid receptor beta; assay: Transactivation potency for Retinoic acid receptor beta; Not active
[11] = biological target: T2, Retinoic acid receptor gamma; assay: Transactivation potency for Retinoic acid receptor gamma; Not active

Row | EC50 [1] | EC50 [2] | Kd [3] | Kd [4] | Kd [5] | IC60 [7] | EC50 [9] | Structure (SMILES) | other results
1 | 170 nM | 130 nM | 2420 nM | 5200 nM | 714 nM | – | – | CC1(C)CCNc2ccc(C#Cc3ccc(C(=O)O)cc3)cc21 | EC50 [6]: 2300 nM
2 | – | – | – | – | – | 2.9 nM | – | CCOC(=O)c1ccc(C#Cc2ccc3c(c2)N(C(C)C)C(=O)CC3(C)C)cc1 | –
3 | 36 nM | 54 nM | 233 nM | – | 211 nM | – | Not Active | CC1(C)CCNc2cc(C#Cc3ccc(C(=O)O)cc3)ccc21 | Kd [8]: Not Active
4 | 3 nM | 3 nM | 52 nM | 52 nM | 18 nM | – | – | CC(C)N1CCC(C)(C)c2ccc(C#Cc3ccc(C(=O)O)cc3)cc21 | EC50 ([9]; read-out: EC50): 17 nM
5 | – | – | – | – | – | 0.4 nM | – | CCOC(=O)c1ccc(C#Cc2ccc3c(c2)C(C)(C)CCN3C(C)C)cc1 | –
6 | 1000 nM | 200 nM | > 1000 nM | > 1000 nM | > 1000 nM | – | Not Active | CC1(C)CC(=O)Nc2cc(C#Cc3ccc(C(=O)O)cc3)ccc21 | –
7 | 4 nM | 4 nM | 17 nM | 136 nM | 17 nM | – | Not Active | CC(C)N1C(=O)CC(C)(C)c2cc(C#Cc3ccc(C(=O)O)cc3)ccc21 | –
8 | – | – | – | – | – | > 300 nM | – | CCCCCCCN1CCC(C)(C)c2cc(C#Cc3ccc(C(=O)OCC)cc3)ccc21 | –
9 | – | – | – | – | – | 7 nM | – | CCOC(=O)c1ccc(C#Cc2ccc3c(c2)NCCC3(C)C)cc1 | –
10 | – | – | – | – | – | 5 nM | – | CCOC(=O)c1ccc(C#Cc2ccc3c(c2)C(C)(C)CCN3)cc1 | –
11 | – | – | – | – | – | 0.33 nM | – | CCOC(=O)c1ccc(/C=C(\C)c2ccc3c(c2)C(C)(C)CCC3(C)C)cc1 | –
12 | – | – | – | – | – | < 0.1 nM | – | CCOC(=O)c1ccc(C#Cc2ccc3c(c2)N(C(C)C)CCC3(C)C)cc1 | –
13 | – | – | – | – | – | > 300 nM | – | CCOC(=O)c1ccc(C#Cc2ccc3c(c2)C(C)(C)CC(=O)N3)cc1 | –
14 | – | – | – | – | – | 1.4 nM | – | CC1=C(/C=C/C(C)=C/C=C/C(C)=C/C(=O)O)C(C)(C)CCC1 | –
15 | – | – | – | – | – | > 300 nM | – | CCOC(=O)c1ccc(C#Cc2ccc3c(c2)NC(=O)CC3(C)C)cc1 | –
16 | 10 nM | 6 nM | 72 nM | 627 nM | 60 nM | – | Not Active | CC(C)N1CCC(C)(C)c2cc(C#Cc3ccc(C(=O)O)cc3)ccc21 | –
17 | 280 nM | 260 nM | > 1000 nM | > 1000 nM | > 1000 nM | – | Not Active | CCCCCCCN1CCC(C)(C)c2cc(C#Cc3ccc(C(=O)O)cc3)ccc21 | –
18 | – | – | > 1000 nM | > 1000 nM | > 1000 nM | – | Not Active | CC1(C)CC(=O)Nc2ccc(C#Cc3ccc(C(=O)O)cc3)cc21 | EC50 [10]: Not Active; EC50 [11]: Not Active
19 | – | – | – | – | – | 6 nM | – | CCOC(=O)c1ccc(C#Cc2ccc3c(c2)C(C)(C)CC(=O)N3C(C)C)cc1 | –
20 | 4 nM | 20 nM | 23 nM | 58 nM | 18 nM | – | Not Active | CC(C)N1C(=O)CC(C)(C)c2ccc(C#Cc3ccc(C(=O)O)cc3)cc21 | –

From ChEMBL document CHEMBL1130529, “Synthesis and biological activity of 1,2,3,4-tetrahydroquinoline and 3,4-(1H)-dihydroquinolin-2-one analogs of retinoic acid” (Bioorg Med Chem Lett, 1997)
